Experimental data as given in patent publication US20100047839A1, “LATENT FLUORIMETRIC INDICATOR FOR BIOLOGICAL ANALYTES DETERMINATION AND THE PREPARATION METHOD THEREOF” (NATIONAL TAIPEI UNIVERSITY OF TECHNOLOGY, priority 2008, published 2010).

Columns and labels:
Format in all cases: biochemical
Settings in all cases: BQC 10 μM, λex 500 nm, λem 595 nm, 4 h, 37° C., pH 7.6, baseline subtracted
[1] = target: T1, DT Diaphorase (Homo sapiens, UniProt P15559); test: Oxygen-insensitive DTD-coupling enzyme assay for 3-hydroxybutyrate determination (3-hydroxybutyrate dehydrogenase, NAD+, DT Diaphorase)
T1 sequence (P15559 whole entry, species assumed): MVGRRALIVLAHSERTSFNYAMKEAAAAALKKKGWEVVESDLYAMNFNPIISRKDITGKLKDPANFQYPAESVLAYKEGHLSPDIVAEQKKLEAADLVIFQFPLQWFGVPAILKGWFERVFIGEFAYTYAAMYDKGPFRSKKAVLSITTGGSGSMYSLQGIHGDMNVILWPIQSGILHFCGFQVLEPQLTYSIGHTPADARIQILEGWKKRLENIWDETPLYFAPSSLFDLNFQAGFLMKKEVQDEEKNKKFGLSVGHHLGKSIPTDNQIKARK
Procedure: (§1) All the fluorimetric measurements carried out with an excitation wavelength of λex=500 nm and an emission wavelength of λem=595 nm. The solutions containing BQC (10 μM), DTD (1 unit), and the corresponding dehydrogenase (1 to 10 unit), NAD^+ (10 μM), and ethanol, 3-hydroxybutrate or glucose-6-phosphate (0 to 10 μM) in Tris-HCl buffer with a final volume of 1 mL were incubated for 4 h at 37° C. The fluorimetric intensity of each solution after subtracting the baseline intensity ([analytes]=0) was plotted versus the analytes concentration.
All different 3-hydroxybutyrate concentration analytes are tabulated in the table below, and the environment of assay is maintained in pH 7.6 at 37° C.

[2] = target: T1, DT Diaphorase; test: Oxygen-insensitive DTD-coupling enzyme assay for glucose-6-phosphate determination (glucose-6-phosphate dehydrogenase, phosphoglucomutase, NAD+, DT Diaphorase)
Procedure: as §1
All different glucose-6-phophate concentration analytes are tabulated in the table below, and the environment of assay is maintained in pH 7.6 at 37° C.

[3] = target: T1, DT Diaphorase; test: Oxygen-insensitive DTD-coupling enzyme assay for ethanol determination (alcohol dehydrogenase, NAD+, DT Diaphorase)
Procedure: as §1
All different ethanol concentration analytes are tabulated in the table below, and the environment of assay is maintained in pH 7.6 at 37° C.

Compound: CC1=C(C)C(=O)C(C(C)(C)CC(=O)N(C)CCN(C)C(=O)Oc2ccc3c(C#N)c(-c4nc5ccccc5s4)c(=O)oc3c2)=C(C)C1=O [BQC]
- relative fluorescence intensity ([1]; 3-hydroxybutyrate 1 μM): 16.17
- relative fluorescence intensity ([1]; 3-hydroxybutyrate 2 μM): 47.59
- relative fluorescence intensity ([1]; 3-hydroxybutyrate 4 μM): 83.74
- relative fluorescence intensity ([1]; 3-hydroxybutyrate 6 μM): 126.26
- relative fluorescence intensity ([1]; 3-hydroxybutyrate 8 μM): 144.93
- relative fluorescence intensity ([1]; 3-hydroxybutyrate 10 μM): 198.56
- relative fluorescence intensity ([2]; glucose-6-phosphate 1 μM): 17.02
- relative fluorescence intensity ([2]; glucose-6-phosphate 2 μM): 36.84
- relative fluorescence intensity ([2]; glucose-6-phosphate 4 μM): 76.41
- relative fluorescence intensity ([2]; glucose-6-phosphate 6 μM): 144.45
- relative fluorescence intensity ([2]; glucose-6-phosphate 8 μM): 175.2
- relative fluorescence intensity ([2]; glucose-6-phosphate 9 μM): 190.32
- relative fluorescence intensity ([2]; glucose-6-phosphate 10 μM): 207.94
- relative fluorescence intensity ([3]; ethanol 0.2 μM): 10.79
- relative fluorescence intensity ([3]; ethanol 0.6 μM): 26.18
- relative fluorescence intensity ([3]; ethanol 0.8 μM): 35.23
- relative fluorescence intensity ([3]; ethanol 1 μM): 39.42
- relative fluorescence intensity ([3]; ethanol 2 μM): 77.06
